Assay results: PubChem BioAssay (NCI)
“And” between values parts separate entries of the source, which are not always exact repeats. Equal entries are not always repeated.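 Following 48 hours of exposure in 96-well plates, responses at five concentrations were used to interpolate endpoints linearly. GI50: concentration for 50% inhibition of growth. TGI marks complete inhibition of growth.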

Experiments:
Assay in all cases: inhibition of tumour cell growth, NCI panel, 48 h
[1] = test system: HOP-92 NSCLC
[2] = test system: RPMI-8226 leukemia
[3] = test system: MOLT-4 leukemia
[4] = test system: T-47D breast
[5] = test system: NCI-H23 lung
[6] = test system: TK-10 renal
[7] = test system: A549 NSCLC
[8] = test system: SF-539 CNS
[9] = test system: NCI-H226 lung

| Structure (SMILES) | GI50 [1] | TGI [1] | GI50 [2] | GI50 [3] | TGI [3] | GI50 [4] | TGI [4] | GI50 [5] | TGI [5] | GI50 [6] | TGI [6] | GI50 [7] | TGI [7] | GI50 [8] | TGI [8] | GI50 [9] | TGI [9] | TGI [2] |
| --- | --- | --- | --- | --- | --- | --- | --- | --- | --- | --- | --- | --- | --- | --- | --- | --- | --- | --- |
| CC(=O)NCCc1c2c(c3nccc4c3c1Nc1ccccc1-4)OCS2 | 2020 nM | 21 µM | 895 nM | 2380 nM | > 100 µM | 2390 nM | 12.8 µM | 1520 nM | 12.3 µM | 5.56 µM | 18.9 µM | 1290 nM | 11.3 µM | 6630 nM | 25.1 µM | 11.6 µM | 26.5 µM |  |
| NC(=O)NNCc1ccccc1 |  | > 100 µM |  |  | > 100 µM |  | > 100 µM |  | > 100 µM |  | > 100 µM |  | > 100 µM |  | > 100 µM |  | > 100 µM | > 100 µM |
| Clc1ccc(CSC(Cn2ccnc2)c2ccc(Cl)cc2Cl)cc1 (centres undefined) | 914 nM | 2.44 µM | 1380 nM | 1720 nM | 4.87 µM | 999 nM | 2.76 µM | 1500 nM | 3.6 µM | 1.53 µM | 2.89 µM | 1420 nM | 3.13 µM | 1730 nM | 3.36 µM | 1.38 µM | 2.84 µM | 4.49 µM |
| COc1ccc(-c2cc(-c3cc(Cl)ccc3Cl)nc3n[nH]c(N)c23)cc1 | 22300 nM | > 100 µM | 22800 nM | 30900 nM | > 100 µM | 30800 nM | > 100 µM | 36900 nM | > 100 µM | 41.2 µM | > 100 µM | 28800 nM | > 100 µM | 25200 nM | 59 µM | 63.4 µM | > 100 µM | 70.2 µM |
| CC[C@]12CCCN3CCc4c(n(c5ccccc45)C(=O)C1)[C@@H]32 |  | > 100 µM |  |  | > 58.2 µM |  | > 100 µM |  | > 100 µM |  | > 90 µM |  | > 100 µM |  | > 51.9 µM |  | > 100 µM | > 65.1 µM |
| COc1cccc2c1C(=O)C=CC2=O |  | 3.75 µM |  |  | 2.34 µM |  | 5.04 µM |  | 30 µM |  | 28.4 µM |  | 40.4 µM |  | 30.1 µM |  | 38.3 µM | 7.23 µM |
| CC1(C)N=C(N)N=C(N)N1c1cccc(CCCCc2cccc(S(=O)(=O)F)c2)c1 | 5480 nM | 94 µM | 2310 nM | 3220 nM | 80.7 µM | 12300 nM | 45.1 µM | 2390 nM | > 100 µM | 4.85 µM | > 100 µM | 751 nM | > 100 µM | 773 nM | 18.8 µM | 8.93 µM | > 100 µM | 35.2 µM |
| Cc1ccc2c(c1)C(C)Cc1c(ncnc1-n1cnc3ccccc31)N2C (centres undefined) | 6760 nM | 27.7 µM | 337 nM | 426 nM | 15 µM | 601 nM | 32.2 µM | 727 nM | 18 µM | 13.1 µM | 29.4 µM | 973 nM | 17.3 µM | 337 nM | 13.5 µM | 3.5 µM | 27.4 µM | 15.9 µM |
| CN(C)CCOc1ccc(-c2nc(-c3ccc4c(c3)CC/C4=N\O)c(-c3ccncc3)[nH]2)cc1 | 710 nM and 1150 nM | 4.29 µM and 24.1 µM | 5750 nM and 16800 nM | 5740 nM and 3530 nM | 12.2 µM and 25.7 µM | 4800 nM and 7630 nM | 9.55 µM and 30.6 µM | 3230 nM and 3980 nM | 7.85 µM and 25.7 µM | 5.66 µM and 5.27 µM | 10.1 µM and 10.4 µM | 4760 nM and 6360 nM | 9.68 µM and 32.7 µM | 4740 nM and 4070 nM | 9.3 µM and 7.77 µM | 4.72 µM and 8.03 µM | 9.77 µM and 17.1 µM | 13.7 µM and 77 µM |
| COc1ccc2oc(=O)cc(C(c3ccc[nH]3)c3ccc[nH]3)c2c1 | 98.5 nM | 2.83 µM | 376 nM | 111 nM | 12 µM | 118 nM | 26.6 µM | 110 nM | 14 µM | 0.155 µM | 15.6 µM | 118 nM | 10.8 µM | 93.7 nM | 0.451 µM | 0.146 µM | 24.4 µM | 3.64 µM |
| Clc1ncnc(Cl)c1Cl |  | > 100 µM |  |  | > 100 µM |  | > 100 µM |  | > 100 µM |  | > 100 µM |  | > 100 µM |  | > 100 µM |  | > 100 µM | > 100 µM |
| CC(C)[C@]12O[C@H]1[C@@H]1O[C@]13[C@]1(O[C@H]1C[C@H]1C4=C(CC[C@@]13C)C(=O)OC4)[C@@H]2O | 20.1 nM | 0.107 µM and 0.0808 µM | 3.6 nM and 11 nM | 12.8 nM | 0.0348 µM | 21.1 nM and 29.2 nM |  |  | 0.0156 µM | 0.0278 µM | > 100 µM | 27.6 nM and 24.6 nM | > 100 µM | 14.6 nM | 0.026 µM and 0.0358 µM | < 0.011 µM | 0.0731 µM and 0.12 µM | 0.0265 µM and 0.0915 µM |
| COc1ccc(C2CC(c3cc(OC)c(OC)c(OC)c3)=NO2)cc1OCCCCOc1cc2c(cc1OC)C(=O)N1CCC[C@H]1C=N2 (some centres undefined) | 2470 nM | 10.3 µM | 1430 nM | 1850 nM | 4.61 µM | 1310 nM | 4.11 µM | 1830 nM | 3.5 µM | 3.51 µM | 9.41 µM | 2330 nM | 5.68 µM | 1800 nM | 3.46 µM | 1.67 µM | 3.44 µM | 4.31 µM |
| COc1ccc(C(=O)c2cc(OC)c(OC)c(OC)c2)cc1 |  | > 100 µM |  |  | 20.2 µM |  | 66.7 µM |  | > 100 µM |  | > 100 µM |  | > 100 µM |  | 1.28 µM |  | 37.9 µM | 76.3 µM |
| C=C1C(=O)O[C@H]2[C@H]1CC/C(CNC(=O)Cc1c[nH]c3ccccc13)=C\CC[C@@]1(C)O[C@@H]21 | 2170 nM | 5.25 µM | 486 nM | 1830 nM | 5.75 µM | 1070 nM | 8.16 µM | 3540 nM | 18.6 µM | 0.747 µM | 2.01 µM | 14900 nM | 33.3 µM | 1920 nM | 9.1 µM | 2.42 µM | 7.81 µM | 3.96 µM |
| N=C(N)c1ccc(OCc2cccc(COc3ccc(C(=N)N)cc3)c2)cc1 | 3010 nM | 9.32 µM | 3110 nM | 16300 nM | 45.4 µM | 26900 nM | > 100 µM | 8590 nM | 27.9 µM | 7.61 µM | 21 µM | 19300 nM | > 100 µM | 1920 nM | 5.1 µM | 7.2 µM | 23.1 µM | 7.88 µM |
| COc1ccc2[nH]c(=O)c3c4ccccc4cn3c2c1 | 2000 nM | 8.37 µM | 358 nM | 399 nM | 2.23 µM | 756 nM | 3.84 µM | 639 nM | 6.59 µM | 1.28 µM | 5.02 µM | 554 nM | 2.77 µM | 657 nM | 2.53 µM | 3.47 µM | 18 µM | 2.03 µM |
| Nc1c(C(=O)c2cccc(CCCN3CCOCC3)c2)cnn1-c1ccc(F)cc1 | 7010 nM | > 25 µM | > 25000 nM | > 25000 nM | > 25 µM | > 23700 nM | > 25 µM | > 25000 nM | > 25 µM | > 25 µM | > 25 µM | > 25000 nM | > 25 µM | > 25000 nM | > 25 µM | > 25 µM | > 25 µM | > 25 µM |
| COc1c(C=O)c2c(c(OC)c1OC)-c1ccc(OC)c(=O)cc1[C@@H](NC(C)=O)CC2 |  | 7.18 µM |  |  | > 17.8 µM |  | > 100 µM |  | 3.47 µM |  | > 100 µM |  | > 100 µM |  | 0.0644 µM |  | 4.17 µM | 47.2 µM |
| CCOC(=O)c1ccc2[nH]c(-c3ccc(S(=O)(=O)F)cc3)cc(=O)c2c1 |  | > 100 µM |  |  | > 100 µM |  | > 100 µM |  | 47 µM |  | > 100 µM |  | > 100 µM |  | > 100 µM |  | > 100 µM | > 100 µM |
| CCOC(=O)c1c2c(c(O)c3ccccc3c(O)n(Cc3ccc(OC)cc3)c1C)C(=O)C=CC2=O | > 100000 nM | > 100 µM | > 100000 nM | 76000 nM | > 100 µM | > 100000 nM | > 100 µM | > 100000 nM | > 100 µM | > 100 µM | > 100 µM | > 100000 nM | > 100 µM | 84600 nM | > 100 µM | 65.3 µM | > 100 µM | > 100 µM |
| Cc1ccc([N+](=O)[O-])cc1NC(=O)Nc1cccc(F)c1 | 3460 nM | 15.2 µM | 2820 nM | 3380 nM | > 100 µM | 3450 nM | > 100 µM | 2610 nM | > 100 µM | 4.19 µM | 17.7 µM | 3420 nM | 26.2 µM | 7200 nM | 33.6 µM | 7.54 µM | > 100 µM | 20.7 µM |
| C[C@@H]1COCCN1c1cc(C2([S@](C)(=N)=O)CC2)nc(-c2ccnc3[nH]ccc23)n1 | 1340 nM and 1140 nM | 14 µM and 8.77 µM | 3960 nM and 6760 nM | 2580 nM and 3390 nM | 9.54 µM and > 10 µM | 3960 nM and 7780 nM | 35.8 µM and > 10 µM | 1740 nM and 1700 nM | 34.3 µM and > 10 µM | 3.69 µM and 1.68 µM | > 59.7 µM | 3460 nM and 4020 nM | > 100 µM | 1190 nM and 1990 nM | 8.03 µM and > 10 µM | 4.98 µM and 8.53 µM | 51.3 µM and > 10 µM | 47.5 µM and > 10 µM |
| O=C1c2ccccc2-c2c1c1ccccc1c(=O)n2CCCCNCCCn1c2c(c3ccccc3c1=O)C(=O)c1ccccc1-2 | 994 nM | 3.45 µM | 19.3 nM | 16 nM | 0.452 µM | 1320 nM | 4.86 µM | 461 nM | 2.53 µM | 0.887 µM | 4.32 µM | 508 nM | 2.9 µM | 492 nM | 2.07 µM | 0.375 µM | 3.11 µM | 0.755 µM |
| CCCCON(OC(=O)c1ccccc1)C(=O)c1ccccc1 | > 100000 nM | > 100 µM | > 100000 nM | 53100 nM | > 100 µM | > 100000 nM | > 100 µM | > 100000 nM | > 100 µM | > 100 µM | > 100 µM | > 100000 nM | > 100 µM | > 100000 nM | > 100 µM | > 100 µM | > 100 µM | > 100 µM |
